The record followed here is ChEMBL document CHEMBL6109170, “Integrated Advancements in Neuroplasticity, Psychedelic Therapeutics, and AI-Driven Innovations for Precision Medicine” (ACS Med Chem Lett, 2025).

A value given as a limit tells only on which side of the number the result lay.

Chain of 5-hydroxytryptamine receptor 2A (P28223 whole entry): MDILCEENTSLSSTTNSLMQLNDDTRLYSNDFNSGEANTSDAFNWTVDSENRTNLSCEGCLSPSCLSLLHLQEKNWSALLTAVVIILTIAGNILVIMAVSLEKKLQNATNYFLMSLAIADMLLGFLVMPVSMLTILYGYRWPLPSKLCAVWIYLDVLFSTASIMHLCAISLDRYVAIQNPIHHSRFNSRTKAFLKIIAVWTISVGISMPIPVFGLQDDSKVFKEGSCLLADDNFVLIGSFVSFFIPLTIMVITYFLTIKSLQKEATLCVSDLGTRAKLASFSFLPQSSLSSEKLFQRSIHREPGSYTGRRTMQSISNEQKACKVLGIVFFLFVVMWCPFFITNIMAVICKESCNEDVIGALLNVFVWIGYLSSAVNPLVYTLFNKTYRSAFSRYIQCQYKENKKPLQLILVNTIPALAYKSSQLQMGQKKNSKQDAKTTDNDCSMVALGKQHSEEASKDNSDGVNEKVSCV

The first assay addresses 5-hydroxytryptamine receptor 2A (Homo sapiens, UniProt P28223). The assay is described as follows: Binding affinity to 5-HT2A receptor (unknown origin) assessed as inhibition constant by radioligand binding assay.
For the compound `CC(C)N(CCc1c(Br)[nH]c2ccccc12)C(C)C`, the Ki is greater than 10 µM.

Another assay concerns the target T1, 5-hydroxytryptamine receptor 1A (Homo sapiens, UniProt P08908).
T1 sequence (P08908 whole entry): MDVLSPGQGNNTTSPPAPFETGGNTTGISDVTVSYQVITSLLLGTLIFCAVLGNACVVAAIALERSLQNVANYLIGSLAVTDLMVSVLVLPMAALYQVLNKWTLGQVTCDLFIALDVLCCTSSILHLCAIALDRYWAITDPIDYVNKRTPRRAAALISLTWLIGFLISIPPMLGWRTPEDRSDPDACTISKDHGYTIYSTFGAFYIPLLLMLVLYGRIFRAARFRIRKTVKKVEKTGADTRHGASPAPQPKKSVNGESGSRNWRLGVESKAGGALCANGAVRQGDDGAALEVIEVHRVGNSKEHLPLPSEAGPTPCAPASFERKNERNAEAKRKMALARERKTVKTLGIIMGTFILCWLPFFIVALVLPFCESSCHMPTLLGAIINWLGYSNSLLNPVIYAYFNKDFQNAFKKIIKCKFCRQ
The assay is described as follows: Binding affinity to 5HT1A receptor (unknown origin) assessed as inhibition constant by radioligand binding assay.
With `CC(=O)Oc1cccc2[nH]c(Br)c(CCN(C)C)c12`, the Ki is greater than 10 µM.

Turning to `CC(C)N(CCc1c(Br)[nH]c2ccccc12)C(C)C`, the Ki was greater than 10 µM.

As to `CC(=O)Nc1cccc2[nH]cc(CCN(C)C)c12`, the Ki is greater than 10 µM.

`CC(=O)Oc1cccc2[nH]cc(CCN(C)C)c12`: the inhibition constant Ki is greater than 10 µM.

As for `CN(C)CCc1c(Cl)[nH]c2ccccc12`, the Ki was greater than 10 µM.
